ChEMBL document CHEMBL3832551, “DailyMed|setid=dd39c559-5c5d-4d3b-9228-c44085e1699f | FELODIPINE - felodipine tablet, film coated, extended release|Aurobindo Pharma Limited”

Tests used:
Type in all cases: ADME, organism-based
[1] = (§1) Evaluation of pharmacokinetic parameters for Felodipine following single oral administration of Felodipine immediate or extended-release tablets; set-up: dose 10 mg, dose 20 mg, route oral; settings: human, in vivo; dosed compound id 10, dosed compound name FELODIPINE, regimen Single dose, route oral, tissue Plasma
Homo sapiens [2] = assay: as §1; set-up: dose 10 mg, dose 20 mg, route oral; settings: in vivo, po, dosed compound id 10, dosed compound name FELODIPINE, regimen Single dose, tissue Plasma
[3] = (§2) Evaluation of pharmacokinetic parameters for Felodipine following multiple oral administration of Felodipine immediate-release tablets; set-up: dose 10 mg, route oral; settings: human, in vivo, 10 mg, dosed compound id 10, dosed compound name FELODIPINE, gender male and female, regimen Once daily, tissue Plasma
Homo sapiens [4] = assay: as §2; set-up: dose 10 mg, route oral; settings: in vivo, dose 10 mg, dosed compound id 10, dosed compound name FELODIPINE, gender male and female, regimen Once daily, route oral, tissue Plasma

## CCOC(=O)C1=C(C)NC(C)=C(C(=O)OC)C1c1cccc(Cl)c1Cl (stereo not drawn) [FELODIPINE]
[1]
  Tmax: 2.5 to 5 h
  bioavailability: 5%
Homo sapiens [2]; dose 10 mg, gender young male and female
  Cmin ss: 2 nM
Homo sapiens [2]; dose 20 mg, gender male and female
  Cmin ss: 7 nM
Homo sapiens [2]; gender male and female
  Cmax: 23 nM
Homo sapiens [2]; gender young male and female
  Cmax: 7 nM
[3]
  Cmax: 20 nM
Homo sapiens [4]
  Cmin ss: 0.5 nM
